# Data taken from patent US12240862B2, “Inhibitors of peptidylarginine deiminases” (Gilead Sciences, Inc., priority 2020, dated 2025).
# Molecular target: T1, human PAD4 (Homo sapiens, UniProt Q9UM07)
# T1 construct: human PAD4 (NM_012387), A2P663, was PCR amplified; His-SUMO (N, cleaved yes); made in house; host or cells: E. coli BL21(DE3)
# Assay: In vitro PAD4 BAEE biochemical assay
# Conditions: human PAD4, BAEE substrate; 5 nM PAD4, 2 mM calcium chloride, 3 mM BAEE; geometric mean of multiple experiments
# In short: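 Ammonia release from BAEE deimination monitored by o-phthalaldehyde amine coupling (1 h, 25 °C) after EDTA stop. Final conditions: 5 nM tag-free recombinant human PAD4 (E. coli), 2 mM CaCl2, 3 mM BAEE, pH 7.6 MOPS with DTT; 30 min compound preincubation, then 2 h reaction at 25 °C.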
# T1 sequence (Q9UM07 2-663): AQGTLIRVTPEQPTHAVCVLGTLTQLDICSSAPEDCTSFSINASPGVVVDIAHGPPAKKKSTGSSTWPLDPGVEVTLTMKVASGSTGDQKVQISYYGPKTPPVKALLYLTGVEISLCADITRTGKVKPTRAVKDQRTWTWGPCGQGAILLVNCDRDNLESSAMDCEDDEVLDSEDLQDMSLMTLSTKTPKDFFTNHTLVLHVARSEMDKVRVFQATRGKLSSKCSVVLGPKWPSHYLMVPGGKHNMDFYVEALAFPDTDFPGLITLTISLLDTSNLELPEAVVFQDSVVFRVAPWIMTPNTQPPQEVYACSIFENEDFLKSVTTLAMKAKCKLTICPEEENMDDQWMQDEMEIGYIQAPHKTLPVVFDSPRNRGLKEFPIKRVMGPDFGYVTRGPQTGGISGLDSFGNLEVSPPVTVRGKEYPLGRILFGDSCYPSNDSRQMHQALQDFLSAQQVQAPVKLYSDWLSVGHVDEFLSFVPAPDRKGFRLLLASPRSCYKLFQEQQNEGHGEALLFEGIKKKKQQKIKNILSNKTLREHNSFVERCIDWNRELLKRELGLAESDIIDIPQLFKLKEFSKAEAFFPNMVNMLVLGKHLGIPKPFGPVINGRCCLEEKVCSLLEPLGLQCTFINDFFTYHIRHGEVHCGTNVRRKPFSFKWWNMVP
row,SMILES,IC50 [nM]
1,"COc1cc(C(=O)N2CC[C@@H]3CCNC[C@@H]32)cc2nc(-c3cc4ccc(N(C(F)F)S(C)(=O)=O)nc4n3CC3CC3)c(C)n12 [Example 321, ~{N}-[2-[7-[(3~{a}~{S},7~{a}~{R})-2,3,3~{a},4,5,6,7,7~{a}-octahydropyrrolo[2,3-c]pyridine-1-carbonyl]-5-methoxy-3-methylimidazo[1,2-a]pyridin-2-yl]-1-(cyclopropylmethyl)pyrrolo [2,3-b]pyridin-6-yl]-~{N}-(difluoromethyl) methanesulfonamide]",278
2,"COc1cc(C(=O)N2CCC3CCNCC32)cc2nc(-c3cc4ccc(N(C(F)F)S(C)(=O)=O)nc4n3CC3CC3)c(C)n12 (stereo not drawn) [Example 322, ~{N}-[2-[7-(2,3,3~{a}, 4,5,6,7,7~ {a}-octahydropyrrolo[2,3-c]pyridine-1-carbonyl)-5-methoxy-3-methylimidazo [1,2-a]pyridin-2-yl]-1-(cyclopropylmethyl)pyrrolo [2,3-b]pyridin-6-yl]-~{N}-(difluoromethyl) methanesulfonamide]",258
3,COc1cc(C(=O)N2CC[C@H]3CCN[C@H]3C2)cc2nc(-c3cc4ccc(N(C(F)F)S(C)(=O)=O)nc4n3CC3CC3)c(C)n12 [Example 325],154
4,"COc1cc(C(=O)N2[C@@H]3CC[C@H]2C[C@@H](N)C3)cc2nc(-c3cc4ccc(N(C(F)F)S(C)(=O)=O)nc4n3CC3CC3)c(C)n12 [Example 326, ~{N}-[2-[7-[(1~{R}, 5~{S})-3-amino-8-azabicyclo[3.2.1]octane-8-carbonyl]-5-methoxy-3-methylimidazo[1,2-a]pyridin-2-yl]-1-(cyclopropylmethyl)pyrrolo[2,3-b]pyridin-6-yl]-~{N}-(difluoromethyl) methanesulfonamide]",3560
5,"COc1cc(C(=O)N(C)C2CCCNC2)cc2nc(-c3cc4ccc(N(C(F)F)S(C)(=O)=O)nc4n3CC3CC3)c(C)n12 (stereo not drawn) [Example 328, 2-[1-(cyclopropylmethyl)-6-[difluoromethyl (methylsulfonyl)amino]pyrrolo[2,3-b]pyridin-2-yl]-5-methoxy-~{N}, 3-dimethyl-~{N}-piperidin-3-ylimidazo [1,2-a]pyridine-7-carboxamide]",4880
6,"COc1cc(C(=O)N2C[C@@H]3CCC[C@H]2[C@H]3N)cc2nc(-c3cc4ccc(N(C(F)F)S(C)(=O)=O)nc4n3CC3CC3)c(C)n12 [Example 329, N-[2-[7-[(1S,5S,8S)-8-amino-6-azabicyclo[3.2.1]octane-6-carbonyl]-5-methoxy-3-methyl-imidazo[1,2-a]pyridin-2-yl]-1-(cyclopropylmethyl)pyrrolo [2,3-b]pyridin-6-yl]-N-(difluoromethyl) methanesulfonamide]",5660
7,"COc1cc(C(=O)N2C[C@H]3CCC[C@@H]2[C@@H]3N)cc2nc(-c3cc4ccc(N(C(F)F)S(C)(=O)=O)nc4n3CC3CC3)c(C)n12 [Example 330, N-[2-[7-[(1R,5R,8R)-8-amino-6-azabicyclo[3.2.1]octane-6-carbonyl]-5-methoxy-3-methyl-imidazo [1,2-a]pyridin-2-yl]-1-(cyclopropylmethyl)pyrrolo [2,3-b]pyridin-6-yl]-N-(difluoromethyl) methanesulfonamide]",233

# Now from value to molecule:
row,IC50 [nM],SMILES
1,1420,"COc1cc(C(=O)N2[C@@H]3CCC[C@H]2[C@@H](N)C3)cc2nc(-c3cc4ccc(N(C(F)F)S(C)(=O)=O)nc4n3CC3CC3)c(C)n12 [Example 331, N-[2-[7-[(1R,5S,6S)-6-amino-8-azabicyclo[3.2.1]octane-8-carbonyl]-5-methoxy-3-methyl-imidazo [1,2-a]pyridin-2-yl]-1-(cyclopropylmethyl)pyrrolo [2,3-b]pyridin-6-yl]-N-(difluoromethyl) methanesulfonamide]"
2,390,"COc1cc(C(=O)N2[C@H]3CCC[C@@H]2[C@H](N)C3)cc2nc(-c3cc4ccc(N(C(F)F)S(C)(=O)=O)nc4n3CC3CC3)c(C)n12 [Example 332, N-[2-[7-[(1S,5R,6R)-6-amino-8-azabicyclo[3.2.1]octane-8-carbonyl]-5-methoxy-3-methyl-imidazo [1,2-a]pyridin-2-yl]-1-(cyclopropylmethyl)pyrrolo [2,3-b]pyridin-6-yl]-N-(difluoromethyl) methanesulfonamide]"
3,178,"COc1cc(C(=O)N2CC[C@@H](OC)[C@@H](N)C2)cc2nc(-c3cc4ccc(N(C(F)F)S(C)(=O)=O)nc4n3CC3CC3)c(C)n12 [Example 335, ~{N}-[2-[7-[(3~{S}, 4~{R})-3-amino-4-methoxypiperidine-1-carbonyl]-5-methoxy-3-methylimidazo [1,2-a]pyridin-2-yl]-1-(cyclopropylmethyl)pyrrolo [2,3-b]pyridin-6-yl]-~{N}-(difluoromethyl) methanesulfonamide]"
4,484,"COc1cc(C(=O)N2C[C@H]3CCCN[C@H]3C2)cc2nc(-c3cc4ccc(N(C(F)F)S(C)(=O)=O)nc4n3CC3CC3)c(C)n12 [Example 336, ~{N}-[2-[7-[(4~{a}~{R},7~{a}~{R})-1,2,3,4,4~{a},5,7,7~{a}-octahydropyrrolo[3,4-b]pyridine-6-carbonyl]-5-methoxy-3-methylimidazo[1,2-a]pyridin-2-yl]-1-(cyclopropylmethyl)pyrrolo [2,3-b]pyridin-6-yl]-~{N}-(difluoromethyl) methanesulfonamide]"
5,12100,"COc1cc(C(=O)N2C[C@@H]3CCCN[C@@H]3C2)cc2nc(-c3cc4ccc(N(C(F)F)S(C)(=O)=O)nc4n3CC3CC3)c(C)n12 [Example 337, ~{N}-[2-[7-[(4~{a}~{S}, 7~{a}~{S})-1,2,3,4,4~{a},5,7,7~{a}-octahydropyrrolo[3,4-b]pyridine-6-carbonyl]-5-methoxy-3-methylimidazo[1,2-a]pyridin-2-yl]-1-(cyclopropylmethyl)pyrrolo [2,3-b]pyridin-6-yl]-~{N}-(difluoromethyl) methanesulfonamide]"
6,21500,"COc1cc(C(=O)NC2C3CCCNC32)cc2nc(-c3cc4ccc(N(C(F)F)S(C)(=O)=O)nc4n3CC3CC3)c(C)n12 (stereo not drawn) [Example 339, ~{N}-(2-azabicyclo[4.1.0]heptan-7-yl)-2-[1-(cyclopropylmethyl)-6-[difluoromethyl (methylsulfonyl)amino]pyrrolo[2,3-b]pyridin-2-yl]-5-methoxy-3-methylimidazo[1,2-a]pyridine-7-carboxamide]"
7,230,"CCO[C@@H]1CCN(C(=O)c2cc(OC)n3c(C)c(-c4cc5ccc(N(C(F)F)S(C)(=O)=O)nc5n4CC4CC4)nc3c2)C[C@@H]1N [Example 340, ~{N}-[2-[7-[(3~{S}, 4~{R})-3-amino-4-ethoxypiperidine-1-carbonyl]-5-methoxy-3-methylimidazo [1,2-a]pyridin-2-yl]-1-(cyclopropylmethyl)pyrrolo [2,3-b]pyridin-6-yl]-~{N}-(difluoromethyl) methanesulfonamide]"
8,14100,"COc1cc(C(=O)N2CCC3(CCCN3)CC2)cc2nc(-c3cc4ccc(N(C(F)F)S(C)(=O)=O)nc4n3CC3CC3)c(C)n12 [Example 342, ~{N}-[1-(cyclopropylmethyl)-2-[7-(1,8-diazaspiro[4.5]decane-8-carbonyl)-5-methoxy-3-methylimidazo[1,2-a]pyridin-2-yl]pyrrolo[2,3-b]pyridin-6-yl]-~{N}-(difluoromethyl) methanesulfonamide]"
